The values below are quoted from earlier work in US6583130B1, “C13-substituted estra-1,3,5,(10)-trien-3-yl sulfamates, methods of preparing same, and pharmaceutical compositions containing these compounds” (Schering AG, priority 1999, dated 2003).

Each structure is given as a SMILES string.

For one series, the target named is T1, sulfatase (Homo sapiens, UniProt P08842).
T1 sequence (P08842 22-583): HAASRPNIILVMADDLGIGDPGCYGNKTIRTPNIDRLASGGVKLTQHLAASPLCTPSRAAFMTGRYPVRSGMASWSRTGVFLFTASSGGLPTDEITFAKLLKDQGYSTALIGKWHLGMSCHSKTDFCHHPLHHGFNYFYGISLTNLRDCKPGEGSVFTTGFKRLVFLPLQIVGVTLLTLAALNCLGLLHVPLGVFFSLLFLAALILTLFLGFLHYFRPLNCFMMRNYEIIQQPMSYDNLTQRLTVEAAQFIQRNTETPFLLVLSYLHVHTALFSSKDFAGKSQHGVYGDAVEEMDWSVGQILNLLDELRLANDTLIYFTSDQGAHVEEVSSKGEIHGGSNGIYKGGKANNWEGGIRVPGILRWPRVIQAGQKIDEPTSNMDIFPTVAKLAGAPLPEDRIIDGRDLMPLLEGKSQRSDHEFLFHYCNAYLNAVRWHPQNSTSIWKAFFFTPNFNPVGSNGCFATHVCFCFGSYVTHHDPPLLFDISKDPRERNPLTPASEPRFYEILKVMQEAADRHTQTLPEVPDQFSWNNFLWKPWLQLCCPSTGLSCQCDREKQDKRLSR
As to conditions: as described in the cited literature.

The test system of another series is uterine growth. As to conditions: ovariectomized rats; Purohit et al. 1998.
The test system of the next series is estrogenic effect. As to conditions: as described in the cited literature (Elger et al. 1995; WO 97/14712).

Take `COc1cc2c(cc1OS(N)(=O)=O)CC[C@@H]1[C@@H]2CC[C@]2(C)C(=O)CC[C@@H]12` [2-methoxyestrone 3-O-sulfamate]: at sulfatase, the sulfatase inhibition result is given as “potent sulfatase inhibitor”. The “estrogenic effect on uterine growth” value in the series on uterine growth is “does not exhibit any estrogenic effect”.
As to `CC(=O)NS(=O)(=O)Oc1ccc2c(c1)CC[C@@H]1[C@@H]2CC[C@]2(C)C(=O)CC[C@@H]12` [N-acetylestrone 3-O-sulfamate], the sulfatase inhibition entry at sulfatase is recorded as “sulfatase inhibitor”. Moreover, the estrogenic effect entry in the series on estrogenic effect is recorded as “strong estrogenic effect”.
With `C[C@]12CC[C@@H]3c4ccc(OS(N)(=O)=O)cc4CC[C@H]3[C@@H]1CCC2=O` [estrone 3-O-sulfamate], at sulfatase, the sulfatase inhibition entry was “strong sulfatase inhibitor”. The estrogenic effect entry in the series with estrogenic effect is reported as “strong estrogenic effect”.
